For data set [1] the following is noted: Rafty et al. (2002), cited from earlier work.
Data set [2] in a line: Poly(ADP-ribose) hydrolysis (autoradiography, high resolution PAGE, HPLC). It is filed as biochemical. The following applies: [32P]poly(ADP-ribose) or poly(ADP-ribose)PARP; 37° C.; autoradiography / PAGE / HPLC. As for the experimental part:
Poly(ADP-ribose) hydrolysis by autoradiography. [^32P]poly(ADP-ribose)PARP (500 ng of PARP with poly(ADP-ribose) was incubated (37° C., 2 h) with 2 μM ARH in 25 μl of 50 mM potassium phosphate buffer, pH 7.5, with or without 10 mM MgCl2 and/or 5 mM DTT. Reactions were stopped by adding 6 μl of 5× Laemmli buffer. Samples (20 μl) of proteins were separated by SDS-PAGE in 4-20% gels and transferred to nitrocellulose membranes that were exposed to X-ray film (Kodak) for 10 h.
Hydrolysis of poly(ADP-ribose) by PARG and ARH3. Purified [^32P] poly(ADP-ribose) (5.5×10^5 cpm, ˜300 nM ADP-ribose) was incubated for the indicated time at 37° C. in 25 μl of 50 mM potassium phosphate, pH 7.5, containing 10 mM MgCl2 and 5 mM DTT with enzyme or other additions as indicated and terminated by addition of 25 μl of 2× electrophoresis buffer (Invitrogen). [^32P]AMP was generated by incubation (37° C., 3 h) of 10 μM [^32P] NAD (10 μCi/reaction) with pyrophosphatase (40 units/mg from SIGMA, 1 mg/ml) in 25 μl of 50 mM KPO4, pH 7.5, and 10 mM MgCl2. [^32P] […]
Poly(ADP-ribose)PARP was used as substrate to assay potential poly(ADP-ribose) hydrolase activities of recombinant ARH1, 2 or 3. […] Fractions (1 ml) were collected for liquid scintillation counting to quantify [^14C]ADP-ribose, which was eluted in fractions from 34 min to 43 min. […]

A further data set concerns the target T1, ARH3 (Mus musculus, UniProt Q8CG72).
T1 construct: The entire coding regions were ligated into pGEX-2T expression vector; GST (N); made in house; host or cells: E. coli BL21 Rosetta
T1 sequence (Q8CG72 1-370): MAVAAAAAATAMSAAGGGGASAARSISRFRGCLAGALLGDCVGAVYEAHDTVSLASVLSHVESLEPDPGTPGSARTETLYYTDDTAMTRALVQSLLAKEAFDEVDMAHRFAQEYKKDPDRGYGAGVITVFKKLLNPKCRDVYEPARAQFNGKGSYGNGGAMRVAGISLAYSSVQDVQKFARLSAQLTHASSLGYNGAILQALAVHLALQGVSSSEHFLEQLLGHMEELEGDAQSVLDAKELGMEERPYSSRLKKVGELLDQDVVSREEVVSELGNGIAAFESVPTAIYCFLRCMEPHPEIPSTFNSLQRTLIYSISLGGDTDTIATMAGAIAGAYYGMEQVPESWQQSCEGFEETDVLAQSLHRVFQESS
Kind of data set: Inhibition of ARH3-catalyzed hydrolysis of O-acetyl-ADP-ribose. Type of data set: biochemical. As for the experimental part: FIG. 15A is a graph of the results from an assay with 2 pmol of ARH3 and the indicated amount of ADP-ribose (●) or β-NAD (∘) in 200 μl for 2 h at 30° C., as described in FIG. 11B. FIG. 15B is a graph of the inhibition of ARH3 hydrolysis by ADP-ribose data schematized for Lineweaver-Burk plot.
Mouse ARH3 (2 pmol) and 2.5 μM O-acetyl-[^14C]ADP-ribose (5,000 cpm) in 200 μl of buffer containing 50 mM potassium phosphate (pH 7.0), 10 mM MgCl2 and 5 mM DTT were incubated for 2 h at 30° C., before separation of substrate and products using RP-HPLC as described below.
Hydrolysis of O-acetyl-[^14C]ADP-ribose catalyzed by ARH3. Assays containing the indicated concentration of O-acetyl-[^14C]-ADP-ribose (0.1 to 2 nmol, 1,000 to 20,000 cpm) and 1.5 pmol of ARH3 in 200 μl of buffer (50 mM KPO4 (pH 7.0), 10 mM MgCl2, 5 mM DTT) were incubated at 30° C. for 20 min. Substrate and products were separated using RP-HPLC. Amounts of product were corrected for ADP-ribose produced in the absence of ARH3 before calculation of hydrolysis rates.
ADP-ribose inhibited ARH3-catalyzed hydrolysis of 2.5 μM O-acetyl-ADP-ribose, ˜50% at a concentration of ca. 10 μM.

This is an account of results in US7670806B2, “ADP-ribosyl acceptor hydrolase 3 (ARH3) polypeptides and methods of use” (The United States of America as represented by the …, priority 2005, dated 2010).

With “murine Nudix: murine Nudix family ADP-ribose pyrophosphatase (Rafty et al. 2002)”, the “kcat, O-acetyl-ADP-ribose” value in data set [1] was 0.78 ± 0.18 s⁻¹. The Km (as a rule, the concentration of substrate that gives half-maximal velocity) in data set [1] (read-out: Km for O-acetyl-ADP-ribose) was 45 ± 0.9 µM. Regarding “ARH1: 39-kDa ADP-ribose-(arginine) protein hydrolase, recombinant mouse or human”, the “Poly(ADP-ribose) hydrolysis (in words)” value in data set [2] is listed as “did not”. On to `Nc1ncnc2c1ncn2[C@@H]1O[C@H](COP(=O)(O)OP(=O)(O)OC[C@H]2OC(O)[C@H](O)[C@@H]2O)[C@@H](O)[C@H]1O` (some centres unmarked) [ADP-ribose], for which, on ARH3 (2.5 μM O-acetyl-ADP-ribose, inhibitor at ca. 10 μM, 2 pmol ARH3, 2 h at 30° C.), the “Inhibition of ARH3-catalyzed hydrolysis of O-acetyl-ADP-ribose” value is about 50%. In addition, the Ki (commonly a measure of affinity in units of concentration, obtained from inhibition or displacement) at ARH3 (Lineweaver-Burk plot, substrate O-acetyl-ADP-ribose) amounted to 8.6 µM.
